Source: patent US20230226100A1, “CYCLODEXTRIN BASED ANTI-MICROBIAL THERAPY” (University of Southern California, priority 2020, published 2023)

Legend:
Type in all cases: cell-based
A549 = experiment: Alamar Blue chemical dye penetration through barrier, A549
Method: (§1) Studies test efficacy barrier to prevent chemical dye penetration. We used a resurazine dye that can penetrate across cellular membranes where it is […] to form a purple color and is quantifiable using fluorescence or visible light. Chemical exposure used Alamar Blue which was incubated for 4 hours. The ability of the barrier formulation to prevent chemical penetration was measured at 570 nm and confirmed using fluorescence intensity (560/590 nm) readings. A concentration dependent response to HPBCD was observed over four hours of incubation. The chemical dye penetration was reduced with increasing percent beta cyclodextrin across all timepoints (FIG. 5).
The ability to block chemical exposure was also conducted in the other cyclodextrins namely hydroxypropyl gamma cyclodextrin (HPGCD), sulfonylbutyl ethyl beta cyclodextrins (SBEBCD), and randomly methylated methyl beta cyclodextrins (CRYSMEB) and incubating over 4 hours. The ability of the barrier formulations to prevent chemical penetration was measured at an absorbance of 570 nm and confirmed using fluorescence intensity (560/590 nm) readings. […] The addition of HEC improved the ability to prevent chemical penetration (Table 2). Although the data is unexpected, it allows for further probe into the effect of these cyclodextrin derivatives on viral particles which may be bigger and more hydrophobic.
(§2) To determine the ability of the candidate nanoscale barrier to prevent chemical penetration, epithelial cells (e.g., HEK293T, A549, Vero-E6 ACE2) were seeded at 1×10^4 cells per well and incubated in DMEM till confluence. Cyclodextrin-based formation candidates were tested at various concentrations from 0 to 20% was added at varying concentrations (% w/v) and incubated for 0.5 h prior to the addition of the Alamar Blue. Alamar Blue is able to penetrate the cell, where viable cells are able to reduce the resazurin-based solution to quantitatively measure level of penetration.

[1] = test system: pLV[Exp]-Puro-CMV>EGFP lentivirus; experiment: EGFP lentivirus infection of HEK293T cells in presence of barrier
Method: To simulate viral infection, we used lentivirus that has green fluorescent protein (GFP) incorporated into its gene. Lentivirus are designed to be highly efficient to transfect epithelial cells such as HEK293T. The effect of HPBCD barrier to present viral infection was evaluated using a concentration escalation study, where HPBCD ranged from 0 to 25% (w/v). In this study, we used a pLV[Exp]-Puro-CMV>EGFP lentivirus to infect HEK293T.
Human muco-ciliary deposition and clearance of exogenous substances occurs in 30 minutes as determined through real time methodology (Thrall et al., Inhalation Toxicology, 2003. 15(6): p. 523-538). Subsequently the EGFP lentivirus was incubated in the presence and absence of the HPBCD barrier for reduced time periods (0.5 h and 2 h) to reflect applicability of a HPBCD nasal spray. After the incubation period, barriers were removed, and cells were washed with 1×PBS before replacement with complete cell culture medium. 24 hours post-incubation at 5% CO2 and 37 degrees C., fluorescence imaging was conducted using the Biotek Cytation 5 imaging device in which 4×GFP images were taken. […] After 30 minutes of incubation with the virus, there is 50% reduction of viral infectivity as measured by fluorescence signal using 5% HPBCD.
To test the ability to prevent viral Epithelial cells (e.g., HEK293T, A549, Vero-E6 ACE2) were used a models chemical and viral infections. Cells were seeded onto 96-well plates at a density of 10^4 cells per well and incubated in DMEM (phenol red free) with 10% FBS and 1% non-essential ammino acids (NEAA). Cells were allowed to attach and grown to confluence to allow for cell polarization prior to experimentation.
Cyclodextrin was added at varying concentrations (% w/v) and incubated for 0.5 h prior to the addition of the virus. Polybrene added at a final concentration of 5 ug/mL to promote viral uptake. Cells were then infected with pLV[Exp]-Puro-CMV>EGFP lentivirus and incubated at 37° C., 5% CO2 for 0.5, 2, or 24 h depending upon the experimental setup. After the incubation time, the beta cyclodextrin solution was removed and cells washed with 1×PBS twice prior to the addition of complete growth medium (DMEM). GFP lentivirus was imaged using the Cytation 5 (Biotek) and relative fluorescence quantified using the Synergy H1 microplate reader (Biotek).

Vero-E6 ACE2 = experiment: Alamar Blue chemical dye penetration through barrier, Vero-E6 ACE2
Method: as §1, §2

A549 cells = experiment: Safety of barriers: A549 cell morphology; details: 5% concentrations; incubated 1 h; 10× magnification
Method: During protection of mucocutaneous linings, barriers will be exposed repeatedly due to frequent dosing. A critical criterion for selecting the right cyclodextrin for a nanoformulation barrier usable in this application is the safety of the cyclodextrin type. A549 cells were seeded at 4×10^4 cells per well and grown to confluence. Cyclodextrin-based formation candidates were tested at 5% concentrations and incubated for 1 h prior to the addition. The barrier was then replaced with media for evaluation. Pictures were taken for at least five field views at 10× magnification.

HEK293T = experiment: Alamar Blue chemical dye penetration through barrier, HEK293T
Method: as §1, §2

[2] = Table 2, confluent A549, 2.5% cyclodextrin (+ HEC: 0.188% HEC), 2 hr, negative values = increase in fluorescence intensity
[3] = Table 2, confluent A549, 2.5% cyclodextrin (+ HEC: 0.188% HEC), 4 hr, negative values = increase in fluorescence intensity
[4] = Table 2, confluent A549, 5% cyclodextrin (+ HEC: 0.375% HEC), 2 hr, negative values = increase in fluorescence intensity
[5] = Table 2, confluent A549, 5% cyclodextrin (+ HEC: 0.375% HEC), 4 hr, negative values = increase in fluorescence intensity
[6] = Table 2, confluent A549, 10% cyclodextrin (+ HEC: 0.75% HEC), 2 hr, negative values = increase in fluorescence intensity
[7] = Table 2, confluent A549, 10% cyclodextrin (+ HEC: 0.75% HEC), 4 hr, negative values = increase in fluorescence intensity
[8] = confluent A549, incubation over 4 hours
[9] = 2.5% HPBCD (Combination: + 0.188% HEC), 2 hr
[10] = 2.5% HPBCD (Combination: + 0.188% HEC), 4 hr
[11] = 5% HPBCD (Combination: + 0.375% HEC), 2 hr
[12] = 5% HPBCD (Combination: + 0.375% HEC), 4 hr
[13] = 10% HPBCD (Combination: + 0.75% HEC), 2 hr
[14] = 10% HPBCD (Combination: + 0.75% HEC), 4 hr

Compound: sulfobutyl ether-beta-cyclodextrin [SBEBCD]
- Percent Reduction Compared to No Barrier Treatment (Mean ± SD) (A549; [2]): 10.7 ± 2.57%
- Percent Reduction Compared to No Barrier Treatment (Mean ± SD) (A549; [3]): −244.5 ± 3.0%
- Percent Reduction Compared to No Barrier Treatment (Mean ± SD) (A549; [4]): 39.5 ± 1.2%
- Percent Reduction Compared to No Barrier Treatment (Mean ± SD) (A549; [5]): −218.2 ± 13.2%
- Percent Reduction Compared to No Barrier Treatment (Mean ± SD) (A549; [6]): 51.3 ± 2.4%
- Percent Reduction Compared to No Barrier Treatment (Mean ± SD) (A549; [7]): −108.2 ± 19.5%
- chemical dye penetration (in words) (A549; confluent A549, 2 h timepoint): dose-dependent reduction in chemical dye penetration
- chemical dye penetration (in words) (A549; [8]): enhanced chemical dye penetration

Compound: CC(O)COC[C@H]1O[C@@H]2O[C@H]3[C@H](O)[C@@H](O)[C@@H](O[C@H]4[C@H](O)[C@@H](O)[C@@H](O[C@H]5[C@H](O)[C@@H](O)[C@@H](O[C@H]6[C@H](O)[C@@H](O)[C@@H](O[C@H]7[C@H](O)[C@@H](O)[C@@H](O[C@H]8[C@H](O)[C@@H](O)[C@@H](O[C@H]1[C@H](O)[C@H]2O)O[C@@H]8COCC(C)O)O[C@@H]7COCC(C)O)O[C@@H]6COCC(C)O)O[C@@H]5COCC(C)O)O[C@@H]4COCC(C)O)O[C@@H]3COCC(C)O (stereo partly drawn) [HPBCD, (2-Hydroxypropyl)-Beta-Cyclodextrin]
- Percent Reduction Compared to No Barrier Treatment (Mean ± SD) (A549; A549, 2.5% HPBCD (Combination: + 0.188% HEC), 2 hr): 82.5 ± 1.4%
- Percent Reduction Compared to No Barrier Treatment (Mean ± SD) (A549; A549, 2.5% HPBCD (Combination: + 0.188% HEC), 4 hr): 66.9 ± 1.9%
- Percent Reduction Compared to No Barrier Treatment (Mean ± SD) (A549; A549, 5% HPBCD (Combination: + 0.375% HEC), 2 hr): 88.5 ± 0.7%
- Percent Reduction Compared to No Barrier Treatment (Mean ± SD) (A549; A549, 5% HPBCD (Combination: + 0.375% HEC), 4 hr): 81.5 ± 0.7%
- Percent Reduction Compared to No Barrier Treatment (Mean ± SD) (A549; A549, 10% HPBCD (Combination: + 0.75% HEC), 2 hr): 89.3 ± 0.6%
- Percent Reduction Compared to No Barrier Treatment (Mean ± SD) (A549; A549, 10% HPBCD (Combination: + 0.75% HEC), 4 hr): 82.9 ± 0.9%
- viral infectivity (GFP expressing lentiviruses) ([1]; 5-20% HPBCD alone): able to reduce viral infectivity
- signs of lentivirus infection ([1]; 20% HPBCD alone as a barrier): No signs of lentivirus infection
- infectivity in HEK cells ([1]; 0.5 h and 2 h incubation, p<0.05 and p<0.01 respectively): concentration dependent decrease in infectivity
- reduction of viral infectivity as measured by fluorescence signal ([1]; HEK293T, 5% HPBCD, 30 minutes of incubation with the virus): 50%
- lentivirus infectivity ([1]; HEK293T, MOI of 5, 6 hours, 10% and 20% HPBCD, p≤0.01): reduced lentivirus infectivity
- Percent Reduction Compared to No Barrier Treatment (Mean ± SD) (Vero-E6 ACE2; [9]): 62.8 ± 2.0%
- Percent Reduction Compared to No Barrier Treatment (Mean ± SD) (Vero-E6 ACE2; [10]): 67.1 ± 1.8%
- Percent Reduction Compared to No Barrier Treatment (Mean ± SD) (Vero-E6 ACE2; [11]): 70.2 ± 1.2%
- Percent Reduction Compared to No Barrier Treatment (Mean ± SD) (Vero-E6 ACE2; [12]): 76.9 ± 0.6%
- Percent Reduction Compared to No Barrier Treatment (Mean ± SD) (Vero-E6 ACE2; [13]): 73.5 ± 1.2%
- Percent Reduction Compared to No Barrier Treatment (Mean ± SD) (Vero-E6 ACE2; [14]): 82.5 ± 0.9%
- A549 cell morphology / cell death (A549 cells): No significant changes in cellular morphology or cell death
- Percent Reduction Compared to No Barrier Treatment (Mean ± SD) (HEK293T; [9]): 70.4 ± 1.7%
- Percent Reduction Compared to No Barrier Treatment (Mean ± SD) (HEK293T; [10]): 71.7 ± 0.8%
- Percent Reduction Compared to No Barrier Treatment (Mean ± SD) (HEK293T; [11]): 77.5 ± 0.6%
- Percent Reduction Compared to No Barrier Treatment (Mean ± SD) (HEK293T; [12]): 80.4 ± 0.8%
- Percent Reduction Compared to No Barrier Treatment (Mean ± SD) (HEK293T; [13]): 79.8 ± 0.6%
- Percent Reduction Compared to No Barrier Treatment (Mean ± SD) (HEK293T; [14]): 84.3 ± 0.6%
- chemical dye (Alamar blue) penetration, relative fluorescence intensity vs no treatment (HEK293T; FIG. 5, P<0.01): statistically significant reduction

Compound: 2-Hydroxypropyl-Gamma-cyclodextrin [HPGCD]
- Percent Reduction Compared to No Barrier Treatment (Mean ± SD) (A549; [2]): −89.9 ± 3.8%
- Percent Reduction Compared to No Barrier Treatment (Mean ± SD) (A549; [3]): −244.5 ± 3.0%
- Percent Reduction Compared to No Barrier Treatment (Mean ± SD) (A549; [4]): −46.7 ± 2.4%
- Percent Reduction Compared to No Barrier Treatment (Mean ± SD) (A549; [5]): −210.66 ± 3.0%
- Percent Reduction Compared to No Barrier Treatment (Mean ± SD) (A549; [6]): −13.1 ± 1.4%
- Percent Reduction Compared to No Barrier Treatment (Mean ± SD) (A549; [7]): −97.0 ± 2.1%
- chemical dye penetration (in words) (A549; [8]): enhanced chemical dye penetration

Compound: crystalline methylated beta-cyclodextrin [CRYSMEB]
- chemical dye penetration (in words) (A549; A549, across all timepoints): reduced in a dose-dependent manner
- Percent Reduction Compared to No Barrier Treatment (Mean ± SD) (A549; [2]): 36.0 ± 2.3%
- Percent Reduction Compared to No Barrier Treatment (Mean ± SD) (A549; [3]): 35.3 ± 1.9%
- Percent Reduction Compared to No Barrier Treatment (Mean ± SD) (A549; [4]): 47.9 ± 0.8%
- Percent Reduction Compared to No Barrier Treatment (Mean ± SD) (A549; [5]): 52.3 ± 2.6%
- Percent Reduction Compared to No Barrier Treatment (Mean ± SD) (A549; [6]): 58.5 ± 1.4%
- Percent Reduction Compared to No Barrier Treatment (Mean ± SD) (A549; [7]): 67.6 ± 2.3%
- A549 cell morphology / cell death (A549 cells): cellular death and cellular morphological changes
